Measurements taken from patent US9096595B2, “7-(heteroaryl-amino)-6,7,8,9-tetrahydropyrido[1,2-a]indol acetic acid derivatives and their use as prostaglandin D2 receptor modulators” (Actelion Pharmaceuticals Ltd, priority 2011, dated 2015).

Assays:
hCRTH2 receptor [1] = molecular target: T1, hCRTH2 receptor (Homo sapiens (Human), UniProt Q9Y5Y4); test: hCRTH2 receptor membranes radioligand (3H-PGD2) displacement assay; conditions: 3H-PGD2 2.5 nM, HEK293-hCRTH2 membrane fragments, Binding-Buffer with 0.1% BSA
Description: (§1) First, recombinant HEK293-hCRTH2 cells were detached from culture plates into 5 ml buffer A/plate (Buffer A: 5 mM Tris, 1 mM MgCl2-6H2O pH=7.4) using a rubber policeman. Cells were then transferred into centrifugation tubes and centrifuged for 5 min at 400 g. The cell pellet was resuspended in the same buffer and tubes were frozen at −80° C. Cells were thawed and membrane fragments were generated by homogenization using a polytron homogenizer (30 seconds). The membrane fragments were then centrifuged at 3000 g for 20 minutes and resuspended in buffer C (Buffer C: 75 mM Tris, 25 mM MgCl2, 250 mM Saccharose pH 7.4). Aliquots of membrane fragments were stored at −20° C.
(§2) Binding assay was performed in a final assay volume of 250 μl. First, 25 μl of test compound, previously diluted in Binding-Buffer (Binding-Buffer: 50 mM Tris-Base, 100 mM NaCl, 1 mM EDTA, 0.1% BSA (protease free), 0.01% NaN3, 10 mM MnCl2 pH 7.0) was placed into each well. After addition of 75 μl Binding-Buffer, 50 μl of the radioligand ^3H-PGD2 (at 2.5 nM (220.000 dpm/well) from ANAWA ART0662) was added to each well. Binding assay was started by addition of 100 μl CRTH2 membrane fragments, reaching a final concentration of 20 μg/well. For non-specific binding, PGD2 was added to the reaction mixture to […] final concentration. This assay mix was incubated for 90 minutes at room temperature and then filtered through a GF/C filter 96-well plate which was pre-soaked for 3 hours in 0.5% polyethyleneimine (PEI). The filter-wells were washed three times with ice cold Binding-Buffer. Then, 40 μl of Microscint-40 (Packard) was added to each well and the retained radioactivity quantified in a Topcount (Packard).

hCRTH2 receptor [2] = molecular target: T1, hCRTH2 receptor; test: Radioligand displacement assay in presence of human serum albumin (HSA); conditions: 3H-PGD2 2.5 nM, HEK293-hCRTH2 membrane fragments, Binding-Buffer-HSA with 0.5% human serum albumin instead of 0.1% BSA
Description: as §1, §2
Radioligand displacement assay in presence of human serum albumin (HSA) was performed as described above, with following modifications. Binding-Buffer-HSA: Binding-buffer+0.5% Sigma Albumin from Human serum A1887 (instead of 0.1% BSA). A volume of 25 μl test compound, previously diluted in Binding-Buffer-HSA was placed into each well. After addition of 75 μl Binding-Buffer-HSA, 50 μl of ^3H-PGD2 (at 2.5 nM (220.000 dpm/well) from ANAWA ART0662) was added to each well. Remaining protocol was identical as described above.

T1 sequence (Q9Y5Y4 whole entry, the tested form may be a part): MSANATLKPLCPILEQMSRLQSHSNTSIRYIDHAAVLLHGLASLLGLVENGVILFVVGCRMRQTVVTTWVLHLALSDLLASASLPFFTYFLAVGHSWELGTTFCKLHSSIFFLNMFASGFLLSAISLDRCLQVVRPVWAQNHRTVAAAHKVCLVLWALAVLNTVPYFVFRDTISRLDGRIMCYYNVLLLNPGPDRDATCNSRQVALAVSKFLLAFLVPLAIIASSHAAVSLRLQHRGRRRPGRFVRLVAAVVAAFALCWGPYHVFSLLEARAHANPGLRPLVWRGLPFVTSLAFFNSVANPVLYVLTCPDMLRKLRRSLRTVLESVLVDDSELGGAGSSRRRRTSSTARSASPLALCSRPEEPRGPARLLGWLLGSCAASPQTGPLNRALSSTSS

Structure (SMILES)	IC50 (hCRTH2 receptor [1]) [nM]	IC50 (hCRTH2 receptor [2]) [nM]
CN(c1nc2ccc(F)cc2s1)C1CCc2c(CC(=O)O)c3ccc(C(F)(F)F)cc3n2C1 (centres unmarked) [Example 26, 2-(7-((6-fluorobenzo[d]thiazol-2-yl)(methyl)amino)-3-(trifluoromethyl)-6,7,8,9-tetrahydropyrido[1,2-a]indol-10-yl)acetic acid]	16	15
CN(c1nc2cc(F)ccc2s1)C1CCc2c(CC(=O)O)c3ccc(F)cc3n2C1 (centres unmarked) [Example 19, 2-(3-fluoro-7-((5-fluorobenzo[d]thiazol-2-yl)(methyl)amino)-6,7,8,9-tetrahydropyrido[1,2-a]indol-10-yl)acetic acid]	51	–
O=C(O)Cc1c2n(c3cc(Cl)ccc13)CC(Nc1ncc(Cl)cn1)CC2 (centres unmarked) [Example 37, 2-(3-chloro-7-((5-chloropyrimidin-2-yl)amino)-6,7,8,9-tetrahydropyrido[1,2-a]indol-10-yl)acetic acid]	27	385
CN(c1nc2ccc(F)cc2s1)C1CCc2c(CC(=O)O)c3ccccc3n2C1 (centres unmarked) [Example 4, 2-(7-((6-fluorobenzo[d]thiazol-2-yl)(methyl)amino)-6,7,8,9-tetrahydropyrido[1,2-a]indol-10-yl)acetic acid]	9	43
O=C(O)Cc1c2n(c3cc(Cl)ccc13)CC(Nc1ncc(F)cn1)CC2 (centres unmarked) [Example 36, 2-(3-chloro-7-((5-fluoropyrimidin-2-yl)amino)-6,7,8,9-tetrahydropyrido[1,2-a]indol-10-yl)acetic acid]	65	465
COCCN(c1ncc(F)cn1)C1CCc2c(CC(=O)O)c3ccc(Cl)cc3n2C1 (centres unmarked) [Example 47, 2-(3-chloro-7-((5-fluoropyrimidin-2-yl)(2-methoxyethyl)amino)-6,7,8,9-tetrahydropyrido[1,2-a]indol-10-yl)acetic acid]	0.8	69
CN(c1ncc(C(F)(F)F)cn1)C1CCc2c(CC(=O)O)c3ccccc3n2C1 (centres unmarked) [Example 3, 2-(7-(methyl(5-(trifluoromethyl)pyrimidin-2-yl)amino)-6,7,8,9-tetrahydropyrido[1,2-a]indol-10-yl)acetic acid]	8	152
CN(c1ncc(F)cn1)C1CCc2c(CC(=O)O)c3ccc(F)cc3n2C1 (centres unmarked) [Example 9, 2-(3-fluoro-7-((5-fluoropyrimidin-2-yl)(methyl)amino)-6,7,8,9-tetrahydropyrido[1,2-a]indol-10-yl)acetic acid]	1	10
CN(c1ncc2ccccc2n1)C1CCc2c(CC(=O)O)c3ccc(Cl)cc3n2C1 (centres unmarked) [Example 39, 2-(3-chloro-7-(methyl(quinazolin-2-yl)amino)-6,7,8,9-tetrahydropyrido[1,2-a]indol-10-yl)acetic acid]	3	5
CN(c1nc2cc(F)ccc2o1)C1CCc2c(CC(=O)O)c3cc(OC(F)(F)F)ccc3n2C1 (centres unmarked) [Example 29, 2-(7-((5-fluorobenzo[d]oxazol-2-yl)(methyl)amino)-2-(trifluoromethoxy)-6,7,8,9-tetrahydropyrido[1,2-a]indol-10-yl)acetic acid]	964	–
O=C(O)Cc1c2n(c3cc(F)ccc13)CC(Nc1nc3cc(F)ccc3o1)CC2 (centres unmarked) [Example 35, 2-(3-fluoro-7-((5-fluorobenzo[d]oxazol-2-yl)amino)-6,7,8,9-tetrahydropyrido[1,2-a]indol-10-yl)acetic acid]	11	20
CCN(c1ncc(F)cn1)C1CCc2c(CC(=O)O)c3ccc(Cl)cc3n2C1 (centres unmarked) [Example 45, 2-(3-chloro-7-(ethyl(5-fluoropyrimidin-2-yl)amino)-6,7,8,9-tetrahydropyrido[1,2-a]indol-10-yl)acetic acid]	1	3
Cc1ccc2c(c1)c(CC(=O)O)c1n2CC(N(C)c2nc3cc(F)ccc3o2)CC1 (centres unmarked) [Example 14, 2-(7-((5-fluorobenzo[d]oxazol-2-yl)(methyl)amino)-2-methyl-6,7,8,9-tetrahydropyrido[1,2-a]indol-10-yl)acetic acid]	42	> 1000
CN(c1nc2cc(F)ccc2o1)C1CCc2c(CC(=O)O)c3cc(F)ccc3n2C1 (centres unmarked) [Example 8, 2-(2-fluoro-7-((5-fluorobenzo[d]oxazol-2-yl)(methyl)amino)-6,7,8,9-tetrahydropyrido[1,2-a]indol-10-yl)acetic acid]	12	123
CN(c1nc2cc(F)ccc2o1)C1CCc2c(CC(=O)O)c3ccc(C(F)(F)F)cc3n2C1 (centres unmarked) [Example 28, 2-(7-((5-fluorobenzo[d]oxazol-2-yl)(methyl)amino)-3-(trifluoromethyl)-6,7,8,9-tetrahydropyrido[1,2-a]indol-10-yl)acetic acid]	8	20
CN(c1nc2cc(F)ccc2o1)C1CCc2c(CC(=O)O)c3ccc(Cl)cc3n2C1 (centres unmarked) [Example 31, 2-(3-chloro-7-((5-fluorobenzo[d]oxazol-2-yl)(methyl)amino)-6,7,8,9-tetrahydropyrido[1,2-a]indol-10-yl)acetic acid]	5	13
CC(C)N(c1nc2cc(F)ccc2o1)C1CCc2c(CC(=O)O)c3ccc(Cl)cc3n2C1 (centres unmarked) [Example 46, 2-(3-chloro-7-((5-fluorobenzo[d]oxazol-2-yl)(isopropyl)amino)-6,7,8,9-tetrahydropyrido[1,2-a]indol-10-yl)acetic acid]	3	5
CN(c1ncc2ccc(F)cc2n1)C1CCc2c(CC(=O)O)c3ccc(Cl)cc3n2C1 (centres unmarked) [Example 41, 2-(3-chloro-7-((7-fluoroquinazolin-2-yl)(methyl)amino)-6,7,8,9-tetrahydropyrido[1,2-a]indol-10-yl)acetic acid]	1	37
COc1ccc2c(c1)c(CC(=O)O)c1n2CC(N(C)c2nc3cc(F)ccc3o2)CC1 (centres unmarked) [Example 12, 2-(7-((5-fluorobenzo[d]oxazol-2-yl)(methyl)amino)-2-methoxy-6,7,8,9-tetrahydropyrido[1,2-a]indol-10-yl)acetic acid]	231	–
CN(c1ncc(F)cn1)C1CCc2c(CC(=O)O)c3ccc(C(F)(F)F)cc3n2C1 (centres unmarked) [Example 24, 2-(7-((5-fluoropyrimidin-2-yl)(methyl)amino)-3-(trifluoromethyl)-6,7,8,9-tetrahydropyrido[1,2-a]indol-10-yl)acetic acid]	5	11
Cc1nc(N(C)C2CCc3c(CC(=O)O)c4ccc(Cl)cc4n3C2)c2ccccc2n1 (centres unmarked) [Example 42, 2-(3-chloro-7-(methyl(2-methylquinazolin-4-yl)amino)-6,7,8,9-tetrahydropyrido[1,2-a]indol-10-yl)acetic acid]	71	–
CN(c1ncc(Cl)cn1)C1CCc2c(CC(=O)O)c3cc(OC(F)(F)F)ccc3n2C1 (centres unmarked) [Example 23, 2-(7-((5-chloropyrimidin-2-yl)(methyl)amino)-2-(trifluoromethoxy)-6,7,8,9-tetrahydropyrido[1,2-a]indol-10-yl)acetic acid]	354	–
CN(c1ncc(F)cn1)C1CCc2c(CC(=O)O)c3cc(Cl)ccc3n2C1 (centres unmarked) [Example 15, 2-(2-chloro-7-((5-fluoropyrimidin-2-yl)(methyl)amino)-6,7,8,9-tetrahydropyrido[1,2-a]indol-10-yl)acetic acid]	136	–
CN(c1ncc(F)cn1)C1CCc2c(CC(=O)O)c3cc(OC(F)(F)F)ccc3n2C1 (centres unmarked) [Example 25, 2-(7-((5-fluoropyrimidin-2-yl)(methyl)amino)-2-(trifluoromethoxy)-6,7,8,9-tetrahydropyrido[1,2-a]indol-10-yl)acetic acid]	141	–
CN(c1nc2ccc(F)cc2s1)C1CCc2c(CC(=O)O)c3cc(OC(F)(F)F)ccc3n2C1 (centres unmarked) [Example 27, 2-(7-((6-fluorobenzo[d]thiazol-2-yl)(methyl)amino)-2-(trifluoromethoxy)-6,7,8,9-tetrahydropyrido[1,2-a]indol-10-yl)acetic acid]	812	–
Cc1ccc2c(c1)c(CC(=O)O)c1n2CC(N(C)c2ncc(F)cn2)CC1 (centres unmarked) [Example 13, 2-(7-((5-fluoropyrimidin-2-yl)(methyl)amino)-2-methyl-6,7,8,9-tetrahydropyrido[1,2-a]indol-10-yl)acetic acid]	417	–
COc1ccc2c(c1)c(CC(=O)O)c1n2CC(N(C)c2ncc(F)cn2)CC1 (centres unmarked) [Example 11, 2-(7-((5-fluoropyrimidin-2-yl)(methyl)amino)-2-methoxy-6,7,8,9-tetrahydropyrido[1,2-a]indol-10-yl)acetic acid]	420	–
